Source: PubChem BioAssay (NCI)
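Assay format: 96-well plates, 48-hour exposure. TGI: concentration producing complete growth inhibition.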

Tests used:
Assay in all cases: inhibition of tumour cell growth, NCI panel, 48 h
[1] = tested on: SNB-75 CNS
[2] = tested on: OVCAR-3 ovarian
[3] = tested on: HT29 colon
[4] = tested on: TK-10 renal
[5] = tested on: RXF 393 renal
[6] = tested on: NCI/ADR-RES ovarian
[7] = tested on: 786-0 renal
[8] = tested on: UO-31 renal
[9] = tested on: SK-OV-3 ovarian
[10] = tested on: UACC-257 melanoma
[11] = tested on: BT-549 breast
[12] = tested on: RPMI-8226 leukemia
[13] = tested on: T-47D breast
[14] = tested on: DU-145 prostate
[15] = tested on: SK-MEL-28 melanoma
[16] = tested on: LOX IMVI melanoma
[17] = tested on: A549 NSCLC
[18] = tested on: NCI-H522 lung
[19] = tested on: SK-MEL-2 melanoma
[20] = tested on: MDA-MB-435
[21] = tested on: NCI-H226 lung
[22] = tested on: M14 melanoma
[23] = tested on: OVCAR-4 ovarian
[24] = tested on: SF-268 CNS
[25] = tested on: EKVX NSCLC
[26] = tested on: SK-MEL-5 melanoma
[27] = tested on: COLO 205 colon
[28] = tested on: CCRF-CEM leukemia
[29] = tested on: SNB-19 CNS
[30] = tested on: IGROV1 ovarian
[31] = tested on: U251 CNS
[32] = tested on: SF-295 CNS
[33] = tested on: HOP-92 NSCLC
[34] = tested on: K-562 leukemia
[35] = tested on: SR leukemia
[36] = tested on: MCF7 breast
[37] = tested on: CAKI-1 renal
[38] = tested on: HOP-62 NSCLC
[39] = tested on: MDA-MB-231 breast
[40] = tested on: MDA-N
[41] = tested on: HCT-15 colon
[42] = tested on: HS 578T breast
[43] = tested on: OVCAR-8 ovarian
[44] = tested on: OVCAR-5 ovarian
[45] = tested on: A498 renal
[46] = tested on: NCI-H460 lung
[47] = tested on: NCI-H23 lung
[48] = tested on: MALME-3M melanoma
[49] = tested on: PC-3 prostate
[50] = tested on: MOLT-4 leukemia
[51] = tested on: SF-539 CNS
[52] = tested on: SN12C renal
[53] = tested on: UACC-62 melanoma
[54] = tested on: ACHN renal
[55] = tested on: HCT-116 colon
[56] = tested on: KM12 colon
[57] = tested on: SW-620 colon
[58] = tested on: HL-60(TB) leukemia
[59] = tested on: HCC-2998 colon

Measured: TGI

Brc1ccc(-c2cn3ccncc3n2)cc1
85.6 µM: [10]
not listed: [57] | [58] | [59]
> 100 µM: all other assays above

Nc1ccc(CCN2CCN(CCCc3ccccc3)CC2)cc1
95.8 µM: [13]
not listed: [1] | [5] | [33]
> 100 µM: all other assays above
